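Following 48 hours of exposure in 96-well plates, responses at five concentrations were used to interpolate endpoints linearly. GI50 is the concentration that inhibits growth by half. TGI is the concentration that stops growth completely.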 *1 amine or outer side, *2 acyl side, *3 side chain or, on linkers, in order; H or OH if unused. Where a SMILES comes first, the peptide text is derived from it. [ ]: non-standard residue; d: D form. The star is where a group is joined. ξ: configuration not given here. X15 = CCN(CC)c1ccc2cc(N*)c(=O)oc2c1; dIva = CC[C@@](C)(N)C(=O)O; X14 = O=C(OCCN[*:1])[*:2]; Aib = CC(C)(N)C(=O)O; ξP = O=C(O)C1CCCN1; βAla = NCCC(=O)O
What was measured:
Test in all cases: NCI tumour cell line growth inhibition, 48 h
DU-145 prostate = tested on: DU-145 prostate
HOP-92 NSCLC = tested on: HOP-92 NSCLC
MDA-MB-231 breast = tested on: MDA-MB-231 breast
NCI-H460 lung = tested on: NCI-H460 lung
NCI/ADR-RES ovarian = tested on: NCI/ADR-RES ovarian
OVCAR-8 ovarian = tested on: OVCAR-8 ovarian
PC-3 prostate = tested on: PC-3 prostate
SF-268 CNS = tested on: SF-268 CNS
SN12C renal = tested on: SN12C renal
T-47D breast = tested on: T-47D breast

Row | SMILES | GI50 (DU-145 prostate) [µM] | TGI (DU-145 prostate) [µM] | GI50 (HOP-92 NSCLC) [µM] | TGI (HOP-92 NSCLC) [µM] | GI50 (MDA-MB-231 breast) [µM] | TGI (MDA-MB-231 breast) [µM] | GI50 (NCI-H460 lung) [µM] | TGI (NCI-H460 lung) [µM] | GI50 (NCI/ADR-RES ovarian) [µM] | TGI (NCI/ADR-RES ovarian) [µM] | GI50 (OVCAR-8 ovarian) [µM] | TGI (OVCAR-8 ovarian) [µM] | GI50 (PC-3 prostate) [µM] | TGI (PC-3 prostate) [µM] | GI50 (SF-268 CNS) [µM] | TGI (SF-268 CNS) [µM] | GI50 (SN12C renal) [µM] | TGI (SN12C renal) [µM] | GI50 (T-47D breast) [µM] | TGI (T-47D breast) [µM]
1 | Cn1ccnc1C(=O)/C=C/c1ccc(CC(=O)Nc2ccc(C(F)(F)F)cc2)cc1 | 2.97 | 6.42 | 2.4 | 5.66 | 4.02 | 15.2 | 2.99 | 9.42 | 4.32 | 10.9 | 4.9 | > 16.7 | 1.01 | 4.6 | 3.03 | 7.88 | 4.32 | > 16.7 | 5.95 | > 16.7
2 | N=C(N)c1ccc(COc2ccccc2OCc2ccc(C(=N)N)cc2)cc1 | 18.7 | 45.8 | 11.4 | 86.2 | 32.9 | > 100 | 20.9 | > 100 | > 100 | > 100 | 48.2 | > 100 | 36.3 | > 100 | 31.8 | 86 | 6.6 | 89.3 | 58.4 | > 100
3 | CS/C(C)=N/OC(=O)NCCCCNc1ccc(N=[N+]=[N-])cc1 | – | – | – | > 100 | – | – | – | > 100 | – | – | – | > 100 | – | – | – | > 100 | – | > 100 | – | –
4 | COc1cccc2nc3cc(C)c(C)cc3nc12 | – | – | – | > 100 | – | – | – | > 100 | – | – | – | > 100 | – | – | – | > 100 | – | > 100 | – | –
5 | CCOC(=O)c1nc(-c2ccccc2)oc1OCC | – | – | – | – | – | – | – | > 100 | – | – | – | > 100 | – | – | – | > 100 | – | > 100 | – | –
6 | CC(C)(C#N)c1cc(C(=O)Nc2cc(Nc3ncccc3-c3ncnc4nc[nH]c34)ccc2F)cc(C(F)(F)F)c1 | > 2.01 | > 10 | 0.255 | 1.78 | 0.27 | – | 1.18 | > 3.27 | 1.62 | > 10 | – | > 10 | – | > 4.27 | – | > 10 | 1.42 | > 10 | – | > 3.23
7 | FC(F)(F)c1ccc(-c2cnc(Cl)nc2NCc2cc(C(F)(F)F)cc(C(F)(F)F)c2)cc1 | 3.92 | > 100 | 1.37 | 4.3 | 2.19 | 6.4 | 3.16 | > 100 | 2.98 | > 100 | 3.48 | > 100 | – | – | 3.86 | > 100 | 2.81 | > 100 | 3.14 | > 100
8 | Nc1n[nH]c2ccc([C@@H]3Nc4ccc5[nH]ncc5c4[C@H]4C5C=CC(C5)[C@@H]34)cc12 (some centres undefined) | 0.445 | > 30.8 | 1.46 | 10.7 | 0.694 | 12.4 | 0.365 | 11.4 | 0.298 | 2.28 | 0.563 | > 89.5 | 0.407 | 22.7 | 1.36 | 31.5 | 0.52 | 28.2 | 10.9 | 77.1
9 | O=c1[nH]c(-c2ccc(-c3nc4cc([N+](=O)[O-])ccc4c(=O)[nH]3)cc2)nc2cc([N+](=O)[O-])ccc12 | – | – | – | > 100 | – | – | – | > 100 | – | – | – | > 100 | – | – | – | – | – | > 100 | – | –
10 | O=C1CCC2(c3ccccc3)Nc3ncccc3N12 (centres undefined) | – | – | – | > 100 | – | – | – | > 100 | – | – | – | > 100 | – | – | – | > 100 | – | > 100 | – | –
11 | O=C(Nc1nc(=S)c2c(ncn2CCO)[nH]1)c1ccccc1 | – | – | – | > 100 | – | – | – | > 100 | – | – | – | > 100 | – | – | – | > 100 | – | > 100 | – | –
12 | CC(=O)Nc1ccc(/C=C/C(=O)c2sc(-c3nc(C)c(C(=O)/C=C/c4ccc(NC(C)=O)cc4)s3)nc2C)cc1 | – | – | – | – | – | – | – | > 100 | – | – | – | > 100 | – | – | – | – | – | > 100 | – | –
13 | O=C1NC2C=CN(Cc3ccccc3)C=C2C(=O)N2CCCC12 (centres undefined) | – | – | – | > 100 | – | – | – | > 100 | – | – | – | > 100 | – | – | – | > 100 | – | > 100 | – | –
14 | C=CC1C(OC2OC(CO)C(O)C(O)C2O)OC=C(C(=O)OC)C1CC=O (centres undefined) | – | – | – | – | – | – | – | – | – | – | – | – | – | – | – | > 100 | – | > 100 | – | –
15 | C=CCNC(=O)NCCCC(NC(C)=O)C(=O)NCc1ccccc1 (centres undefined) | – | – | – | > 100 | – | – | – | > 100 | – | – | – | > 100 | – | – | – | > 100 | – | > 100 | – | –
16 | Cc1c(Cl)cccc1NC1=C(Cl)C(=O)N(Cc2ccccc2)C1=O | 3.67 | 17.1 | 1.56 | 14.9 | – | – | 11 | 30.2 | 5 | 20.9 | 9.23 | 23.8 | 4.85 | 19 | 6.88 | 27 | 11.4 | 24.1 | 25.4 | > 100
17 | COC(=O)c1cc(-c2cccn2C)c2c(c1C(=O)OC)c1ccccc1n2C | – | – | – | > 100 | – | – | – | > 100 | – | – | – | > 100 | – | – | – | – | – | > 100 | – | –
18 | CC(C)N1C(NNC(=O)c2cnccn2)=NS(=O)(=O)c2ccccc21 | > 100 | > 100 | – | – | > 100 | > 100 | > 100 | > 100 | > 100 | > 100 | > 100 | > 100 | > 100 | > 100 | > 100 | > 100 | > 100 | > 100 | > 100 | > 100
19 | CCN(CC)c1ccc2cc(NC(=O)OCCNC(=O)CCNC(=O)[C@H](CC(C)C)NC(=O)C(C)(C)NC(=O)C(C)(C)NC(=O)[C@H](CC(C)C)NC(=O)CCNC(=O)C(C)(C)NC(=O)[C@H](CC(C)C)NC(=O)CCNC(=O)[C@@](C)(CC)NC(=O)[C@H](C)NC(=O)CCNC(=O)C(C)(C)NC(=O)[C@H](C)NC(=O)[C@@H]3CCCN3C(=O)[C@@](C)(CC)NC(=O)[C@H](Cc3ccccc3)NC(=O)C3CCCN3C(=O)C(C)(C)NC(=O)C3CCCN3C(=O)C(C)(C)NC(C)=O)c(=O)oc2c1 (some centres undefined) (Ac-[Aib][ξP][Aib][ξP]F[dIva]PA[Aib][βAla]A[dIva][βAla]L[Aib][βAla]L[Aib][Aib]L[βAla][X14]-X15) | 0.00497 | 0.0199 | 0.0256 | 0.0709 | – | – | 0.00348 | 0.0138 | 0.176 | 0.378 | 0.005 | 0.0939 | 0.00311 | 0.0281 | 0.00435 | 0.0187 | 0.0034 | 0.0143 | 0.00302 | 0.0143

Reference: PubChem BioAssay (NCI)
